According to US20100009853A1, “PARASITIC PLANT CONTROL AGENT AND USE THEREOF” (Nihon Nohyaku Co., Ltd, priority 2006, published 2010):
Where “and” joins values, the source holds several entries; their conditions need not be identical. Equal entries are not always repeated.

How the values were obtained:
Type in all cases: in vivo
[1] = system: red clover; experiment: Test Example 5: phytotoxicity of soil irrigation treatment on red clover; conditions: symptom growth inhibition
Protocol: (§1) The red clover seeds were sowed in a pot packed with soil (1/10000 ares) and Orobanche minor seeds were sowed around the red clover seeds, followed by cultivation in a greenhouse. After 10, 20 and 30 days of the sowing, agent liquid prepared into a predetermined concentration was irrigation-treated at a ratio of 20 ml/pot.

[2] = system: parasitic plant; experiment: Parasitic plant controlling activity (general statement); conditions: general statement in the description
[3] = system: Orobanche minor; experiment: Test Example 1: seed soaking treatment, parasitism of Orobanche minor on red clover; conditions: for Average parasitism frequency per root / S4 bud formation per root: seed soaking 24 h; for Average parasitism frequency per root: red clover host, untreated plot 2.55; for S4 bud formation per root: untreated plot 0.52
Protocol: (§2) Red clover seeds were soaked for 24 hours in agent liquid which had been prepared into a predetermined concentration. The red clover seeds were sowed in a pot packed with soil (1/10000 ares) and Orobanche minor seeds were sowed around the red clover seeds, followed by cultivation in a greenhouse. Growth of the red clover and the parasitism frequency and growth of Orobanche minor were observed by visual observation. The growth of Orobanche minor was evaluated based on the following four steps. [table]

[4] = system: Orobanche minor; experiment: Test Example 4: seed soaking treatment, parasitism of Orobanche minor on red clover; conditions: for S4 bud formation per root / Average parasitism frequency per root: seed soaking 24 h; for S4 bud formation per root: untreated plot 0.45; for Average parasitism frequency per root: untreated plot 2.08; for S4 bud formation / total parasitism frequency of Orobanche minor: seed soaking, all treatment plots (200 and 20 ppm)
Protocol: as §2, with “observation.” for “observation. The growth of Orobanche minor was evaluated based on the following four steps. [table]”

[5] = system: Orobanche minor; experiment: Test Example 6: foliage application treatment, parasitism of Orobanche minor on red clover; conditions: for Average parasitism frequency per root: foliage application at 10, 20 and 30 days after sowing, untreated plot 2.08; for S4 bud formation per root / parasitism frequency decreasing tendency / S4 bud formation / parasitism frequency: foliage application; for S4 bud formation per root: untreated plot 0.45; for parasitism frequency decreasing tendency: 200 ppm or less; for S4 bud formation: 2000 and 200 ppm
From the text: (§3) The red clover seeds were sowed in a pot packed with soil (1/10000 ares) and Orobanche minor seeds were sowed around the red clover seeds, followed by cultivation in a greenhouse. After 10, 20 and 30 days of the sowing, sufficient amount of agent liquid diluted to a predetermined concentration with water was applied to the foliage using an atomizer, from single- to double-leaf stage of the red clover.

[6] = system: Orobanche minor; experiment: Test Example 3: foliage application treatment, parasitism of Orobanche minor on red clover; conditions: for Average parasitism frequency per root: foliage application at 10, 20 and 30 days after sowing, untreated plot 2.55; for S4 bud formation per root: untreated plot 0.52
From the text: as §3

[7] = system: crop plants; experiment: Phytotoxicity for crop plants (general statement); conditions: general statement in the description
[8] = system: Orobanche minor; experiment: Test Example 2: soil irrigation treatment, parasitism of Orobanche minor on red clover; conditions: for Average parasitism frequency per root: soil irrigation 20 ml/pot at 10, 20 and 30 days after sowing, untreated plot 2.55; for S4 bud formation per root: untreated plot 0.52
Protocol: as §1, with “sowing, an” for “sowing,”

[9] = system: Orobanche minor; experiment: Test Example 5: soil irrigation treatment, parasitism of Orobanche minor on red clover; conditions: for Average parasitism frequency per root: soil irrigation 20 ml/pot at 10, 20 and 30 days after sowing, untreated plot 2.08; for S4 bud formation per root / parasitism frequency / S4 bud formation: soil irrigation; for S4 bud formation per root: untreated plot 0.45; for parasitism frequency: 2000 and 200 ppm; for S4 bud formation: all treatment plots
Protocol: as §1

[10] = system: red clover; experiment: Test Example 3: effect of foliage application on the host red clover
From the text: as §3

Compound: Cc1ccc(NC(=O)c2snnc2C)cc1Cl [TDN, tiadinil]
- phytotoxicity ([1]; 200 ppm): weak
- phytotoxicity ([1]; 2000 ppm): strong
- parasitic plant controlling activity [2]: high
- Average parasitism frequency per root ([3]; 20 ppm): 1.07 per root
- S4 bud formation per root ([3]; 20 ppm): 0.08 per root
- Average parasitism frequency per root ([3]; 200 ppm): 2.57 per root
- S4 bud formation per root ([3]; 200 ppm): 0.21 per root
- Average parasitism frequency per root ([3]; 2000 ppm): 2.01 per root
- S4 bud formation per root ([3]; 2000 ppm): 0.15 per root
- number of total parasitized cases of Orobanche minor ([3]; seed soaking, 20 ppm): reducing tendency
- S4 bud formation per root ([4]; 20 ppm): 0.10 per root
- Average parasitism frequency per root ([4]; 20 ppm): 1.12 per root
- S4 bud formation per root ([4]; 200 ppm): 0.12 per root
- Average parasitism frequency per root ([4]; 200 ppm): 0.05 per root
- S4 bud formation [4]: decreasing tendency
- total parasitism frequency of Orobanche minor [4]: decreasing tendency
- Average parasitism frequency per root ([5]; 20 ppm): 2.25 per root
- Average parasitism frequency per root ([5]; 200 ppm): 1.92 per root
- Average parasitism frequency per root ([5]; 2000 ppm): 0.34 per root
- S4 bud formation per root ([5]; 20 ppm): 0.49 per root
- parasitism frequency decreasing tendency [5]: unclear
- S4 bud formation per root ([5]; 200 ppm): 0.35 per root
- S4 bud formation [5]: decreasing tendency
- parasitism frequency ([5]; 2000 ppm): decreasing tendency
- S4 bud formation per root ([5]; 2000 ppm): 0.15 per root
- parasitism, dose relation ([6]; foliage application): dose-related lowering
- Average parasitism frequency per root ([6]; 20 ppm): 1.49 per root
- Average parasitism frequency per root ([6]; 200 ppm): 1.02 per root
- Average parasitism frequency per root ([6]; 2000 ppm): 0.24 per root
- S4 bud formation per root ([6]; foliage application, 20 ppm): 0.15 per root
- S4 bud formation per root ([6]; foliage application, 200 ppm): 0.06 per root
- effect on parasitism ([6]; foliage application, 2000 ppm): high effect
- S4 bud formation per root ([6]; foliage application, 2000 ppm): 0.03 per root
- phytotoxicity [7]: low
- effective concentration ([8]; soil irrigation): ≥ 200 ppm
- parasitism, dose relation ([8]; soil irrigation): dose-related lowering
- Average parasitism frequency per root ([8]; 2 ppm): 2.36 per root
- Average parasitism frequency per root ([8]; 20 ppm): 1.71 per root
- Average parasitism frequency per root ([8]; 200 ppm): 0.53 per root
- Average parasitism frequency per root ([8]; 2000 ppm): 0.03 per root
- S4 bud formation per root ([8]; soil irrigation, 2 ppm): 0.17 per root
- S4 bud formation per root ([8]; soil irrigation, 20 ppm): 0.10 per root
- S4 bud formation per root ([8]; soil irrigation, 200 ppm): 0.16 per root
- Parasitism ([8]; soil irrigation, 2000 ppm): hardly found
- S4 bud formation per root ([8]; soil irrigation, 2000 ppm): 0.00 per root
- Average parasitism frequency per root ([9]; 20 ppm): 2.22 per root
- Average parasitism frequency per root ([9]; 200 ppm): 1.55 per root
- Average parasitism frequency per root ([9]; 2000 ppm): 0.22 per root
- S4 bud formation per root ([9]; 20 ppm): 0.13 per root
- S4 bud formation per root ([9]; 200 ppm): 0.11 per root
- parasitism frequency [9]: reducing tendency
- S4 bud formation per root ([9]; 2000 ppm): 0.07 per root
- S4 bud formation [9]: reduced

Compound: N#Cc1ccccc1NC(=O)c1snc(Cl)c1Cl [CICA, N-(2-cyanophenyl)-3,4-dichloroisothiazole-5-carboxamide]
- phytotoxicity ([1]; 2000 ppm): weak
- S4 bud formation per root ([4]; 20 ppm): 0.11 per root
- Average parasitism frequency per root ([4]; 20 ppm): 1.36 per root
- S4 bud formation per root ([4]; 200 ppm): 0.09 per root
- Average parasitism frequency per root ([4]; 200 ppm): 1.15 per root
- S4 bud formation [4]: decreasing tendency
- total parasitism frequency of Orobanche minor [4]: decreasing tendency
- Average parasitism frequency per root ([5]; 20 ppm): 3.01 per root
- Average parasitism frequency per root ([5]; 200 ppm): 2.05 per root
- Average parasitism frequency per root ([5]; 2000 ppm): 0.44 per root
- S4 bud formation per root ([5]; 20 ppm): 0.60 per root
- parasitism frequency decreasing tendency [5]: unclear
- S4 bud formation per root ([5]; 200 ppm): 0.25 per root
- S4 bud formation [5]: decreasing tendency
- parasitism frequency ([5]; 2000 ppm): decreasing tendency
- S4 bud formation per root ([5]; 2000 ppm): 0.03 per root
- Average parasitism frequency per root ([9]; 20 ppm): 1.99 per root
- Average parasitism frequency per root ([9]; 200 ppm): 1.39 per root
- Average parasitism frequency per root ([9]; 2000 ppm): 0.15 per root
- S4 bud formation per root ([9]; 20 ppm): 0.10 per root
- S4 bud formation per root ([9]; 200 ppm): 0.09 per root
- parasitism frequency [9]: reducing tendency
- S4 bud formation per root ([9]; 2000 ppm): 0.04 per root
- S4 bud formation [9]: reduced

Compound: O=C(O)c1ccnc(Cl)c1 [INA, 2-chloroisonicotinic acid]
- growth of the host ([10]; 200 ppm treatment plot): inhibited
- reduction of the S4 (bud formation) ([3]; seed soaking): large
- Average parasitism frequency per root ([3]; 20 ppm): 2.28 per root
- S4 bud formation per root ([3]; 20 ppm): 0.22 per root
- Average parasitism frequency per root ([3]; 200 ppm): 1.03 per root
- S4 bud formation per root ([3]; 200 ppm): 0.02 per root
- number of total parasitized cases of Orobanche minor ([3]; seed soaking, 200 ppm): reducing tendency
- Average parasitism frequency per root ([6]; 2 ppm): 0.99 per root
- Average parasitism frequency per root ([6]; 20 ppm): 0.94 per root
- S4 bud formation per root ([6]; foliage application, 2 ppm): 0.05 per root
- S4 bud formation per root ([6]; foliage application, 20 ppm): 0.03 per root
- parasitism frequency ([6]; foliage application, concentration not given): lowered
- Average parasitism frequency per root ([8]; 2 ppm): 1.49 per root
- Average parasitism frequency per root ([8]; 20 ppm): 1.03 per root
- S4 bud formation per root ([8]; soil irrigation, 2 ppm): 0.07 per root
- S4 bud formation per root ([8]; soil irrigation, 20 ppm): 0.08 per root
- parasitism frequency ([8]; soil irrigation, 200 ppm): slightly lowered

Compound: C=CCOC1=NS(=O)(=O)c2ccccc21 [PBZ, probenazole]
- Average parasitism frequency per root ([3]; 20 ppm): 1.50 per root
- S4 bud formation per root ([3]; 20 ppm): 0.28 per root
- Average parasitism frequency per root ([3]; 200 ppm): 1.59 per root
- S4 bud formation per root ([3]; 200 ppm): 0.29 per root
- Average parasitism frequency per root ([6]; 20 ppm): 2.24 per root
- Average parasitism frequency per root ([6]; 200 ppm): 1.75 per root
- S4 bud formation per root ([6]; foliage application, 20 ppm): 0.16 per root
- S4 bud formation per root ([6]; foliage application, 200 ppm): 0.18 per root
- Average parasitism frequency per root ([8]; 2 ppm): 2.47 per root
- Average parasitism frequency per root ([8]; 20 ppm): 3.17 per root
- Average parasitism frequency per root ([8]; 200 ppm): 1.52 per root
- S4 bud formation per root ([8]; soil irrigation, 2 ppm): 0.13 per root
- S4 bud formation per root ([8]; soil irrigation, 20 ppm): 0.08 per root
- S4 bud formation per root ([8]; soil irrigation, 200 ppm): 0.08 per root

Compound: O=C(O)c1ccccc1O [SA, salicylic acid]
- red clover withered (fraction of plants per pot) ([10]; first treatment with 200 ppm, two pots): 4/6 and 1/5
- parasitic plant controlling activity [2]: not so high
- Average parasitism frequency per root ([3]; 20 ppm): 2.09 per root
- S4 bud formation per root ([3]; 20 ppm): 0.38 per root
- Average parasitism frequency per root ([3]; 200 ppm): 2.17 per root
- S4 bud formation per root ([3]; 200 ppm): 0.44 per root
- Average parasitism frequency per root ([6]; 2 ppm): 1.91 per root
- S4 bud formation per root ([6]; foliage application, 2 ppm): 0.17 per root
- S4 bud formation per root ([6]; foliage application, 20 ppm): 0.38 per root
- parasitism frequency ([6]; foliage application, 200 ppm): large
- Average parasitism frequency per root ([8]; 2 ppm): 1.75 per root
- Average parasitism frequency per root ([8]; 20 ppm): 2.47 per root
- S4 bud formation per root ([8]; soil irrigation, 2 ppm): 0.06 per root
- S4 bud formation per root ([8]; soil irrigation, 20 ppm): 0.03 per root
